Numbered stars: 1 amine (or outer) side, 2 acyl side, 3 side chain; on linkers, the order of the positions; unused ones are H or OH. Bridge positions count the residues as written; N and C are the ends. Square brackets hold non-standard residues; d marks the D form. Triazole bridges read from a SMILES are 1,4-linked. Peptide text beside a SMILES is read from it. Gly(αS-SH) = O=C([C@@H](N[*:1])S[*:3])[*:2]; Tyr(3-I) = N[C@@H](Cc1ccc(O)c(I)c1)C(=O)O; Orn(N3) = [N-]=[N+]=NCCC[C@H](N)C(=O)O; Dap(N3) = [N-]=[N+]=NC[C@H](N)C(=O)O; NMeY = CN[C@@H](Cc1ccc(O)cc1)C(=O)O; Aha = [N-]=[N+]=NCC[C@H](N)C(=O)O; Cit = NC(=O)NCCC[C@H](N)C(=O)O; Hpra = C#CCC[C@H](N)C(=O)O; Pra = C#CC[C@H](N)C(=O)O; Sar = CNCC(=O)O
Key:
rat α9α10 nAChR = rat α9α10 nAChR (Rattus norvegicus, UniProt P43144+Q9JLB5); assay: cell-based; type: cell-based; details: for IC50: α9α10 nAChR IC50 (nM) Rat
Chain of rat α9α10 nAChR (P43144 26-479 limits assumed): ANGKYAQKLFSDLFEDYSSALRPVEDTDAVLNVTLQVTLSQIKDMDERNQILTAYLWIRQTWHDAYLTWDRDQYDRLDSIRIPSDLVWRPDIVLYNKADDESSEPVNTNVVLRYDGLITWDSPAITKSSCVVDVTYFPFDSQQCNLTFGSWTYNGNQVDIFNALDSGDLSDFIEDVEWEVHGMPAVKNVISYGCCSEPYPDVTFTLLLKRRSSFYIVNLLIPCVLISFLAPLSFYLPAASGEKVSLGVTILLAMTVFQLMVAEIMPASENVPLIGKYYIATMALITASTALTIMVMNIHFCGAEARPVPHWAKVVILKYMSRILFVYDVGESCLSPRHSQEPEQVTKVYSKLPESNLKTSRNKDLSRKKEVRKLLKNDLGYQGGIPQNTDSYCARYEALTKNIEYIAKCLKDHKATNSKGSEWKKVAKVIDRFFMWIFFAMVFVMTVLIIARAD
Chain of rat α9α10 nAChR (Q9JLB5 25-447 limits assumed): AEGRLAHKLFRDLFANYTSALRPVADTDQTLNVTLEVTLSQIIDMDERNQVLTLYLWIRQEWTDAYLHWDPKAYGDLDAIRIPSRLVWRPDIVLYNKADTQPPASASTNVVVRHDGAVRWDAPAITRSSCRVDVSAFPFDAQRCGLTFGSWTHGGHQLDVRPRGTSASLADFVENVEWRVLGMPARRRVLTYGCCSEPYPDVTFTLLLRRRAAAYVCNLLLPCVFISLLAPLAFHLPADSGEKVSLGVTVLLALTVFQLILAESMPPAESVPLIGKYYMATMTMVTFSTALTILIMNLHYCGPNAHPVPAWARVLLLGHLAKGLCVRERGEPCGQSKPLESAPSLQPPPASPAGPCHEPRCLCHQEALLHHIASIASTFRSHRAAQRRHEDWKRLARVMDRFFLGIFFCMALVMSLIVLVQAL

human α9α10 nAChR = human α9α10 nAChR (Homo sapiens, UniProt Q9GZZ6+Q9UGM1); assay: cell-based; type: cell-based
Chain of human α9α10 nAChR (Q9UGM1 26-479 limits assumed): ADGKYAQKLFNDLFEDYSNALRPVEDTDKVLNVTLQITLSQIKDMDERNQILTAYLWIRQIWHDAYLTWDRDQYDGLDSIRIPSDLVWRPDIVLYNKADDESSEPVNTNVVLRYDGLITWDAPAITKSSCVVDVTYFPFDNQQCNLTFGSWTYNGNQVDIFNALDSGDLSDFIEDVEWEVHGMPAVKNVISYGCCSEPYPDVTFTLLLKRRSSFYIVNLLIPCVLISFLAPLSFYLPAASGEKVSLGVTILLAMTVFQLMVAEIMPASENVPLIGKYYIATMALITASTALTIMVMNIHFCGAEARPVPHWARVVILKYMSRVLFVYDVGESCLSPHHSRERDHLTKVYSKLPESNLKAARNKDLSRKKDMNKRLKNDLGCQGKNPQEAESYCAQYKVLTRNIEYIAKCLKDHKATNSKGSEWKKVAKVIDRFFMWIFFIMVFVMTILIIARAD
Chain of human α9α10 nAChR (Q9GZZ6 25-450 limits assumed): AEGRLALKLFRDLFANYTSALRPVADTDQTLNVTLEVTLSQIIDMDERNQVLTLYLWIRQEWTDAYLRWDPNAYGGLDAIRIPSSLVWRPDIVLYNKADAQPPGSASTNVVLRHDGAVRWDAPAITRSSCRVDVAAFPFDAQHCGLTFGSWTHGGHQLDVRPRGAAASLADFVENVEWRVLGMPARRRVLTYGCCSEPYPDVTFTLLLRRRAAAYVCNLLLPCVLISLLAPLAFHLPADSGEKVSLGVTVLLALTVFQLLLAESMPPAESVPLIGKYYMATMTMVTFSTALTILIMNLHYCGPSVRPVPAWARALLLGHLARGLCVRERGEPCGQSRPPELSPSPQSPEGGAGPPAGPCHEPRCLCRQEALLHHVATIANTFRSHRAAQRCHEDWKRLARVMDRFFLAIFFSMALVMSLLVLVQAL

Row | Compound | IC50 (rat α9α10 nAChR) | IC50 (human α9α10 nAChR) | Loss in activity on the rat channel on deletion of amino acid 13 (1a vs 1q) (rat α9α10 nAChR) | Loss of activity on the human channel on deletion of amino acid 13 (1a vs 1q) (human α9α10 nAChR)
1 | C[C@@H](O)[C@@H]1NC(=O)[C@@H]2Cc3cn(nn3)CCC[C@@H](C(=O)N[C@@H](Cc3ccc(O)cc3)C(=O)N(C)CC(=O)O)NC(=O)[C@H](CCC(N)=O)NC(=O)[C@H](Cc3c[nH]c4ccccc34)NC(=O)[C@H](CCCNC(N)=O)NC(=O)[C@H](CSSC[C@H](NC(=O)CN)C(=O)N2)NC(=O)[C@H](CCCNC(=N)N)NC(=O)[C@@H]2CCCN2C(=O)[C@H](CC(=O)O)NC1=O [In, glycine, glycyl-L-cysteinyl-L-alanyl-L-threonyl-L-α-aspartyl-L-prolyl-L-arginyl-L-cysteinyl-N5-(aminocarbonyl)-L-ornithyl-L-tryptophyl-L-glutaminyl-L-norvalyl-L-tyrosyl-N-methyl-cyclic (2→8)-disulfide-cyclic 3^3,12^5-(1H-1,2,3-triazole-4,1-diyl)] (H-GC[Pra]TDPRC[Cit]WQ[Orn(N3)]Y[Sar]-OH; disulfide 2-8; triazole 3-12) | ≤ 10 nM | 37 ± 15 nM | – | –
2 | C[C@@H](O)[C@@H]1NC(=O)[C@@H]2Cc3cn(nn3)CCC[C@@H](C(=O)N[C@@H](Cc3ccc(O)cc3)C(=O)O)NC(=O)[C@H](CCC(N)=O)NC(=O)[C@H](Cc3ccc(O)c(I)c3)NC(=O)[C@H](CCCNC(N)=O)NC(=O)[C@H](CSSC[C@H](NC(=O)CN)C(=O)N2)NC(=O)[C@H](CCCNC(=N)N)NC(=O)[C@@H]2CCCN2C(=O)[C@H](CC(=O)O)NC1=O [Ib, L-tyrosine, glycyl-L-cysteinyl-L-alanyl-L-threonyl-L-α-aspartyl-L-prolyl-L-arginyl-L-cysteinyl-N5-(aminocarbonyl)-L-ornithyl-L-3-iodotyrosyl-L-glutaminyl-L-norvalyl-cyclic (2→8)-disulfide-cyclic 3^3,12^5-(1H-1,2,3-triazole-4,1-diyl)] (H-GC[Pra]TDPRC[Cit][Tyr(3-I)]Q[Orn(N3)]Y-OH; disulfide 2-8; triazole 3-12) | 7 nM | 37 ± 1.3 nM | – | –
3 | C[C@@H](O)[C@@H]1NC(=O)[C@@H]2CCc3cn(nn3)CCC[C@@H](C(=O)N[C@@H](Cc3ccc(O)cc3)C(=O)O)NC(=O)[C@H](CCC(N)=O)NC(=O)[C@H](Cc3c[nH]c4ccccc34)NC(=O)[C@H](CCCNC(N)=O)NC(=O)[C@H](CSSC[C@H](NC(=O)CN)C(=O)N2)NC(=O)[C@H](CCCNC(=N)N)NC(=O)[C@@H]2CCCN2C(=O)[C@H](CC(=O)O)NC1=O [Ig, L-tyrosine, glycyl-L-cysteinyl-(2S)-2-aminobutanoyl-L-threonyl-L-α-aspartyl-L-prolyl-L-arginyl-L-cysteinyl-N5-(aminocarbonyl)-L-ornithyl-L-tryptophyl-L-glutaminyl-L-norvalyl-cyclic (2→8)-disulfide-cyclic 3^4,12^5-(1H-1,2,3-triazole-4,1-diyl)] (H-GC[Hpra]TDPRC[Cit]WQ[Orn(N3)]Y-OH; disulfide 2-8; triazole 3-12) | 22 ± 1.1 nM | 19 nM | – | –
4 | C[C@@H](O)[C@@H]1NC(=O)[C@H]2NC(=O)[C@@H](NC(=O)CN)Cc3cn(nn3)CCC[C@H](NC(=O)[C@H](CCCNC(=N)N)NC(=O)[C@@H]3CCCN3C(=O)[C@H](CC(=O)O)NC1=O)C(=O)N[C@@H](CCCNC(N)=O)C(=O)N[C@@H](Cc1ccc(O)c(I)c1)C(=O)N[C@@H](CCC(N)=O)C(=O)N[C@H](C(=O)N[C@@H](Cc1ccc(O)cc1)C(N)=O)CSS2 [Ic, L-tyrosinamide, glycyl-L-alanyl-L-cysteinyl-L-threonyl-L-α-aspartyl-L-prolyl-L-arginyl-L-norvalyl-N5-(aminocarbonyl)-L-ornithyl-L-3-iodotyrosyl-L-glutaminyl-L-cysteinyl-cyclic 2^3,8^5-(1H-1,2,3-triazole-4,1-diyl)-cyclic-(3→12)-disulfide] (H-G[Pra][Gly(αS-SH)]TDPR[Orn(N3)][Cit][Tyr(3-I)]QCY-NH2; triazole 2-8; disulfide 3-12) | 69 ± 8.5 nM | 152 ± 71 nM | – | –
5 | C[C@@H](O)[C@@H]1NC(=O)[C@@H]2Cc3cn(nn3)CCC[C@@H](C(=O)N[C@@H](Cc3ccc(O)cc3)C(=O)N(C)[C@@H](Cc3ccc(O)cc3)C(=O)O)NC(=O)[C@H](CCC(N)=O)NC(=O)[C@H](Cc3c[nH]c4ccccc34)NC(=O)[C@H](CCCNC(N)=O)NC(=O)[C@H](CSSC[C@H](NC(=O)CN)C(=O)N2)NC(=O)[C@H](CCCNC(=N)N)NC(=O)[C@@H]2CCCN2C(=O)[C@H](CC(=O)O)NC1=O [Ip, L-tyrosine, glycyl-L-cysteinyl-L-alanyl-L-threonyl-L-α-aspartyl-L-prolyl-L-arginyl-L-cysteinyl-N5-(aminocarbonyl)-L-ornithyl-L-tryptophyl-L-glutaminyl-L-norvalyl-L-tyrosyl-N-methyl-cyclic (2→8)-disulfide-cyclic 3^3,12^5-(1H-1,2,3-triazole-4,1-diyl)] (H-GC[Pra]TDPRC[Cit]WQ[Orn(N3)]Y[NMeY]-OH; disulfide 2-8; triazole 3-12) | ≤ 10 nM | 26 ± 1.4 nM | – | –
6 | C[C@@H](O)[C@@H]1NC(=O)[C@@H]2Cn3cc(nn3)CCC[C@@H](C(=O)N[C@@H](Cc3ccc(O)cc3)C(=O)O)NC(=O)[C@H](CCC(N)=O)NC(=O)[C@H](Cc3c[nH]c4ccccc34)NC(=O)[C@H](CCCNC(N)=O)NC(=O)[C@H](CSSC[C@H](NC(=O)CN)C(=O)N2)NC(=O)[C@H](CCCNC(=N)N)NC(=O)[C@@H]2CCCN2C(=O)[C@H](CC(=O)O)NC1=O [Ik, L-tyrosine, glycyl-L-cysteinyl-L-alanyl-L-threonyl-L-α-aspartyl-L-prolyl-L-arginyl-L-cysteinyl-N5-(aminocarbonyl)-L-ornithyl-L-tryptophyl-L-glutaminyl-L-(2S)-2-aminopentanoyl-cyclic (2→8)-disulfide-cyclic 3^3,12^5-(1H-1,2,3-triazole-1,4-diyl)] | 9.5 ± 1.3 nM | 16.6 ± 1.1 nM | – | –
7 | C[C@@H](O)[C@@H]1NC(=O)[C@@H]2CCC(=O)NCCCC[C@@H](C(=O)N[C@@H](Cc3ccc(O)cc3)C(N)=O)NC(=O)[C@H](CCC(N)=O)NC(=O)[C@H](Cc3ccc(O)c(I)c3)NC(=O)[C@H](CCCNC(N)=O)NC(=O)[C@H](CSSC[C@H](NC(=O)CN)C(=O)N2)NC(=O)[C@H](CCCNC(=N)N)NC(=O)[C@@H]2CCCN2C(=O)[C@H](CC(=O)O)NC1=O [Iw, L-tyrosinamide, glycyl-L-cysteinyl-L-glutamyl-L-threonyl-L-α-aspartyl-L-prolyl-L-arginyl-L-cysteinyl-N5-(aminocarbonyl)-L-ornithyl-L-3-iodotyrosyl-L-glutaminyl-L-lysyl-cyclic (2→8)-disulfide-cyclic-(3→12)-lactam] (H-GCETDPRC[Cit][Tyr(3-I)]QKY-NH2; disulfide 2-8; lactam 3-12) | 36 ± 9 nM | > 300 nM | – | –
8 | C[C@@H](O)[C@@H]1NC(=O)[C@@H]2CCc3cn(nn3)CC[C@@H](C(=O)N[C@@H](Cc3ccc(O)cc3)C(=O)O)NC(=O)[C@H](CCC(N)=O)NC(=O)[C@H](Cc3c[nH]c4ccccc34)NC(=O)[C@H](CCCNC(N)=O)NC(=O)[C@H](CSSC[C@H](NC(=O)CN)C(=O)N2)NC(=O)[C@H](CCCNC(=N)N)NC(=O)[C@@H]2CCCN2C(=O)[C@H](CC(=O)O)NC1=O [Ih, L-tyrosine, glycyl-L-cysteinyl-(2S)-2-aminobutanoyl-L-threonyl-L-α-aspartyl-L-prolyl-L-arginyl-L-cysteinyl-N5-(aminocarbonyl)-L-ornithyl-L-tryptophyl-L-glutaminyl-L-(2S)-2-aminobutanoyl-cyclic (2→8)-disulfide-cyclic 3^4,12^4-(1H-1,2,3-triazole-4,1-diyl)] (H-GC[Hpra]TDPRC[Cit]WQ[Aha]Y-OH; disulfide 2-8; triazole 3-12) | 8.5 ± 1.1 nM | 8 ± 1.5 nM | – | –
9 | C[C@@H](O)[C@@H]1NC(=O)[C@@H]2Cc3cn(nn3)C[C@@H](C(=O)N[C@@H](Cc3ccc(O)cc3)C(N)=O)NC(=O)[C@H](CCC(N)=O)NC(=O)[C@H](Cc3ccc(O)c(I)c3)NC(=O)[C@H](CCCNC(N)=O)NC(=O)[C@H](CSSC[C@H](NC(=O)CN)C(=O)N2)NC(=O)[C@H](CCCNC(=N)N)NC(=O)[C@@H]2CCCN2C(=O)[C@H](CC(=O)O)NC1=O [If, L-tyrosinamide, glycyl-L-cysteinyl-L-alanyl-L-threonyl-L-α-aspartyl-L-prolyl-L-arginyl-L-cysteinyl-N5-(aminocarbonyl)-L-ornithyl-L-3-iodotyrosyl-L-glutaminyl-L-alanyl-cyclic (2→8)-disulfide-cyclic 3^3,12^3-(1H-1,2,3-triazole-4,1-diyl)] (H-GC[Pra]TDPRC[Cit][Tyr(3-I)]Q[Dap(N3)]Y-NH2; disulfide 2-8; triazole 3-12) | 12.5 ± 8.7 nM | 1520 ± 116 nM | – | –
10 | C[C@@H](O)[C@@H]1NC(=O)[C@@H]2Cc3cn(nn3)CCC[C@@H](C(=O)O)NC(=O)[C@H](CCC(N)=O)NC(=O)[C@H](Cc3c[nH]c4ccccc34)NC(=O)[C@H](CCCNC(N)=O)NC(=O)[C@H](CSSC[C@H](NC(=O)CN)C(=O)N2)NC(=O)[C@H](CCCNC(=N)N)NC(=O)[C@@H]2CCCN2C(=O)[C@H](CC(=O)O)NC1=O [Iq, L-norvaline, glycyl-L-cysteinyl-L-alanyl-L-threonyl-L-α-aspartyl-L-prolyl-L-arginyl-L-cysteinyl-N5-(aminocarbonyl)-L-ornithyl-L-tryptophyl-L-glutaminyl-cyclic (2→8)-disulfide-cyclic 3^3,12^5-(1H-1,2,3-triazole-4,1-diyl)] (H-GC[Pra]TDPRC[Cit]WQ[Orn(N3)]-OH; disulfide 2-8; triazole 3-12) | 69 ± 2 nM | > 300 nM | approximately 10 fold | greater than 100 fold
